Laboratory results as given in publication PMC8160210, “Single tryptophan Y160W mutant of homooligomeric E. coli purine nucleoside phosphorylase implies that dimers forming the hexamer are functionally not equivalent” (Scientific Reports, 2021).
Read-outs that look alike come from different tables or passages of the source.

Columns and labels:
[1] = target: Y160W PNP mutant (Escherichia coli, UniProt P0ABP8, Y161W); test: Inhibition of m^7Guo phosphorolysis; format: biochemical, E. coli; set-up: made in house; host or cells: E. coli DH5α-T1
Procedure: All activity measurements and kinetic studies were done in 50 mM Hepes/HCl buffer pH 7.0 at 25 °C as previously described for the WT E. coli PNP and its active-site mutants, using direct spectrophotometric assay for adenosine, guanosine and 7-methylguanosine as substrates, and a coupled assay with xanthine oxidase in the case of inosine[13],[28],[29]. Activity measurements were performed for each protein sample, before and after each experiment as a control of the state of the protein.
To determine inhibition model and inhibition constant for formycin A, rate of phosphorolysis with m^7Guo as a variable substrate, at constant, 50 mM, phosphate concentration, was registered in the absence of the inhibitor and in the presence of two different concentrations of formycin. A global fitting to the whole data set was performed, using various models (competitive, uncompetitive, noncompetitive, mixed). As expected for the substrate analogue, competitive model described the data sufficiently well:3 v0c0=Vmax1c0/c0+KM1+ci/Ki where ci is inhibitor concentration. Kinetic data were analysed using the GraphPad Prism program (Intuitive Software for Science, San Diego, CA, USA).

[2] = target: T1, Y160W mutant/Pi complex (Escherichia coli, UniProt P0ABP8, Y161W); test: Calorimetric (ITC) titrations with formycin A; set-up: species or system E. coli
T1 construct: made in house; host or cells: E. coli DH5α-T1
Procedure: (§1) The isothermal titration experiments were performed on the MicroCal iTC200 (Malvern) microcalorimeter. […] All experiments were carried out at 25°C. For the WT protein series of three calorimetric titrations, with protein concentration in the range of 70 to 800 μM, for the Y160W mutant series of four titration with protein concentration in the range of 300 μM to 1.3 mM were performed. Samples of each protein used for these series came from a single preparation. Ligand samples were 8–12 times more concentrated than the protein sample, in order to achieve a diverse ligand/protein molar ratio during titration and thus better explore binding curves. In some ITC experiments, in order to sample the lower plateau region more accurately, several initial points were measured with less ligand volume added at each step than used in the subsequent titration points measurements. An example of the ITC data is shown in the Supplementary Information (Figure S6). Raw thermograms were analysed with NITPIC[43]. Global analysis of titration curves was performed with Sedphat[20],[21].
(§2) Three models were taken into account in analysis of binding curves: model with one (first equation below), two (first two equations) and three binding sites. P+L⇔PLwithKd1PL+L⇔PLLwithKd2PLL+L⇔PLLLwithKd3
(§3) The model with one binding site is based on the assumption that all monomers are equivalent, and there is no cooperation between them. In the model with two binding sites the basic functional unit of the protein is a dimer, possible non-equivalence of binding sites or cooperativity between active sites in the dimer are taken into account (in the case of no cooperativity dissociation constants should be related statistically: Kd2 = 4Kd1), the dimers within hexamer are equivalent. The model with three binding sites is based on the crystallographic structures of binary and ternary complexes of PNP with ligands, where two of the dimers are in the “open-closed” conformation, but the third dimer is symmetrical, in the “open-open” conformation. Thus, active sites in the open conformation belonging to “open-closed” and “open-open” dimer may not be equivalent. This model takes into account possibility of cooperation between all monomers within a hexameric molecule of the protein (in the case of no cooperativity dissociation constants should be related statistically: Kd3 = 9Kd1, Kd2 = 3Kd1).
(§4) Titration series were analysed globally, always starting from the simplest, one-binding-site model. […] For all tested models the Akaike information criterion[23] was also calculated. Generally both criteria used in the discrimination analysis were pointing the same model as best describing the data. The only exception was thermophoretic titration of the WT protein with formycin A, and it is described in details in the Results. Analysed models were fitted to the raw data, whereas graphs presented in this study were prepared from the normalised data and the fitted curves. The parameters of the fit are dissociation constants and responses of the system. Responses are defined as changes in a measured physical quantity related to the formation of subsequent protein–ligand complexes: intrinsic protein fluorescence intensity, fluorescence intensity of the dye, heat and ellipticity for fluorimetric, thermophoretic, calorimetric and CD titrations, respectively. Responses are normalised for the protein concentration present in the titration, thus giving molar coefficients.

[3] = target: T2, WT PNP/Pi complex (Escherichia coli, UniProt P0ABP8); test: Calorimetric (ITC) titrations with formycin A; set-up: species or system E. coli
T2 construct: made in house
Procedure: as §1, §2, §3, §4

Nc1ncnc2c([C@@H]3O[C@H](CO)[C@@H](O)[C@H]3O)[nH]nc12 [FA, Formycin A]
Ki [1]: 42 ± 4 µM | Kd ([2]; Kd1 ± SD, three-binding-site model, 50 mM phosphate, pH 7.6, 25 °C): 6.75 µM | Kd ([2]; Kd3 ± SD, three-binding-site model, 50 mM phosphate, pH 7.6, 25 °C): 655 µM | Kd ([2]; read-out: Kd2 ± SD, three-binding-site model, 50 mM phosphate, pH 7.6, 25 °C): 149 µM | Kd ([3]; Kd1 ± SD, three-binding-site model, 50 mM phosphate, pH 7.6, 25 °C, values to be treated as estimates): 8.9 µM | Kd ([3]; Kd3 ± SD, three-binding-site model, 50 mM phosphate, pH 7.6, 25 °C, values to be treated as estimates): 812 µM | Kd ([3]; read-out: Kd2 ± SD, three-binding-site model, 50 mM phosphate, pH 7.6, 25 °C, values to be treated as estimates): 55 µM
